Source: patent publication US6573253B2, “Methods for the administration of amifostine and related compounds” (MedImmune Oncology Inc., priority 1997, dated 2003)
Several values for one entry are separate records, joined by “and”; a condition that tells them apart may be missing. Equal values may be shown once. Read-outs that look alike come from different tables or passages of the source.

How the values were obtained:
MDS = experiment: Subcutaneous amifostine in MDS patients: hematologic responses and adverse effects; format: in vivo, human
Text: All patients in the study had MDS and were diagnosed as having one of the following subtypes: refractory anemia, refractory anemia with ring sideroblasts, refractory anemia with excess blasts or refractory anemia with excess blasts in transformation. In addition, the patients had thrombocytopenia (platelets <100,000/μl), neutropenia (ANC or absolute neutrophil count<1500/μl) or a hemoglobin untransfused <10 g/dl and/or were transfusion-dependent as defined by requiring at least 4 units of RBC in the 10 weeks prior to entry.
(§1) Blood pressure was monitored before treatment and after the first dose at 30 minute intervals for up to 90 minutes. […] At least three patients were treated with each dose. […] Hematologic responses to treatment were evaluated by measuring neutrophil count (ANC), platelet count, erythroid response including hemoglobin levels and reticulocyte count, and in vitro colony formation.

[1] = system: radiation-induced xerostomia; conditions: IV Amifostine + RT, cited from earlier work
[2] = Phase I three-way crossover study: safety assessments / adverse events (NCI Common Toxicity Criteria)
Protocol: If hypotension occurred, the subject was to receive a rapid infusion of 500 mL normal saline and was to be kept supine or in the Trendelenburg position until blood pressure returned to baseline. During this time, blood pressure was monitored every 3 minutes.
All subjects who had received at least one dose of protocol therapy were considered evaluable for safety. […] Toxicity was based on National Cancer Institute (NCI) Common Toxicity Criteria.
Because this was a crossover study to be performed on three successive days, toxicities were assigned to the route of administration on the day the toxicity occurred. A full nonparametric crossover model (likelihood of ratio test) was used to assess toxicities which corrected for period and sequence effects. A PROC CATMOD of SAS@ was used for this analysis.

[3] = system: radiation-induced mucositis; experiment: Radiation-induced mucositis model, inferior lip of mice (Parkins et al.): body weight, mucosal erythema and edema scores; conditions: for Erythema (score) / Oedema (score): individual mice and Mean
[4] = human, in vivo
Protocol: All subjects were sequestered at the study site from the evening before the administration of the first dose of study drug until the final whole blood sample was obtained.
Blood samples (5 to 7 mL each) were collected either by venipuncture or indwelling venous catheter (IVC) heparin lock. If IVC was used, it was inserted in the arm opposite the infusion site. […] For either line, the first 3 to 5 cc of blood were discarded (void volume) prior to blood collection.
To prevent further oxidation of WR-1065, PCA/EDTA was added to the samples prior to centrifugation. Because PCA/EDTA ruptures the cellular content of the blood, the samples were centrifuged for a longer period of time to prevent contamination/metabolism of the active metabolite. Consequently, only the clear supernatant (serum) was used for analysis of WR-1065. In contrast, no PCA/EDTA was added to the blood samples designated for analysis of the parent drug; therefore, plasma samples were prepared for analysis of the parent drug.
WINNONLIN, the WINDOWS version of PCNONLIN, was used for the determination of pharmacokinetic parameters for each subject following each route of administration. Non-compartmental modelling of the data was performed.
AUCs were calculated using extrapolation according to a straightline from the last non-zero point.
The AUCs were then analyzed using an analysis of variance (ANOVA) model with route, period and subject as variables. Sequence was not included in the model as this variable was uniquely determined by route and period. The confidence interval on the ratio of the subcutaneous or oral route to the intravenous route was calculated using the mean square error from the entire ANOVA model.

[5] = cited from earlier work
[6] = system: Bone marrow progenitor cells; experiment: In vitro colony formation (CFU-GEMM, BFU-E, CFU-GM) of bone marrow progenitor cells from treated MDS patients, methylcellulose assays; format: cell-based, human; conditions: bone marrow progenitor cells from MDS patients after s.c. amifostine
Protocol: as §1
Bone marrow progenitor cells were recovered from the treated patients and assayed for their ability to form CFU-GEMM, BFU-E and CFU-GM colonies in standard methylcellulose assays.

mucositis = experiment: Rat RT model: mucosal radioprotection by IV or SC amifostine at various times before 15.3 Gy head and neck irradiation (mucositis score); format: in vivo; conditions: rats, 200 mg/kg (1200 mg/m^2), given up to 4 hours prior to radiation therapy (15.3 Gy)
Protocol: A rat RT model was used to examine the protective effects of amifostine following IV as well as subcutaneous (SC) administration, and to investigate the length of time between amifostine administration and RT. In these experiments, rats were given 200 mg/kg (1200 mg/m^2) of amifostine IV or SC, and their head and neck regions exposed to 15.3 Gy of gamma irradiation at various times following amifostine administration. For 10 days after treatment, the rats were weighed and the oral cavities of the rats were examined for signs of mucositis. Mucosal erythema and mucosal edema were scored according to 0-5 and 0-2 scales, respectively, with the scores added to indicate overall mucositis.

[7] = system: radiation-induced xerostomia
Protocol: In the phase II study all patients were undergoing radiation therapy for histologically confirmed squamous cell carcinoma of the head and neck region. Patients were allowed to enter the study following surgery with curative intent as soon as the wound has healed but no later than 12 weeks post operatively.
Blood pressure and pulse were obtained prior to subcutaneous administration and repeated 10 minutes following administration. An IV was available to treat hypotension if it occurred. Patients received full supportive care including antiemetics, antibiotics, transfusions of blood and blood products, and the like when needed. Prophylactic antiemetics were not administered. If patients experienced nausea and vomiting they were administered either prochlorperazine, 10 mg PO, 30 minutes prior to therapy, repeating every 4 to 6 hours following therapy as needed or ondansetron, 8 mg PO, 30 minutes prior to therapy, repeating every 4 hours following therapy as needed.
Radiation therapy was provided with linear accelerators with appropriate photon and electron boosting to the nodes or Cobalt 60. The appropriate photon energy was based on optimizing the radiation therapy dose distribution within the target volume and minimizing dose to normal tissue. Patients were reproducibly mobilized and radio-opaque markers were used to delineate the extent of nodal disease and, where possible, the primary tumor. All fields were treated once daily at 1.8-2.0 Gy per fraction, five days per week to a total dose of:
Xerostomia was graded in each subject according to the RTOG criteria.

[8] = MDS patients, s.c. 500 mg once/day, 17 evaluable
[9] = Intravenous 200 mg/m^2, N = 12, table cells give subject numbers
[10] = Intravenous 200 mg/m^2, N = 12, table cells give subject numbers, listed as amifostine
[11] = Oral 500 mg, N = 12, table cells give subject numbers
[12] = Amifostine (l.p.) at 200 mg/kg + Irradiation (16.5 Gy), day 6 after treatment, 200 mg/kg
[13] = Amifostine (l.p.) at 200 mg/kg + Irradiation (16.5 Gy), day 7 after treatment, 200 mg/kg
[14] = Amifostine (l.p.) at 200 mg/kg + Irradiation (16.5 Gy), day 13 after treatment, 200 mg/kg
[15] = Amifostine (l.p.) at 200 mg/kg + Irradiation (16.5 Gy), day 14 after treatment, 200 mg/kg
[16] = Amifostine (l.p.) at 400 mg/kg + Irradiation (16.5 Gy), day 13 after treatment, 400 mg/kg
[17] = Amifostine (l.p.) at 400 mg/kg + Irradiation (16.5 Gy), day 14 after treatment, 400 mg/kg
[18] = Amifostine (s.c.) at 200 mg/kg + Irradiation (16.5 Gy), day 9 after treatment, 200 mg/kg
[19] = Amifostine (s.c.) at 400 mg/kg + Irradiation (16.5 Gy), day 14 after treatment, 400 mg/kg
[20] = intravenous, cancer patients, plasma
[21] = SC amifostine, head and neck cancer patients

SMILES: NCCCNCCSP(=O)(O)O [Amifostine, S-2-(3-aminopropylamino)ethyl dihydrogen phosphorothioate]
- Platelet response, patients with >50,000/μl: Responders (number) (MDS; 3 evaluable): 3
- Platelet response, patients with >50,000/μl: Responders (percent) (MDS; 3 evaluable): 100%
- BM Blasts ↑ (RAEB): patients (number; RAEB-t, AML) (MDS; 5 evaluable): 2 (RAEB-t, AML)
- Platelet response, patients with <50,000/μl: Responders (number) (MDS; 6 evaluable): 0
- Hemoglobin >1.5 g/dl ↑: Responders (number) (MDS; 7 evaluable): 1
- Ring Sideroblast ↓: Responders (number) (MDS; 7 evaluable): 3
- ANC response, patients with ANC < 1000: Responders (number) (MDS; 8 evaluable): 3
- ANC response, patients with ANC < 1000: Responders (percent) (MDS; 8 evaluable): 38.5%
- ANC response, patients with ANC > 1000: Responders (number) (MDS; 9 evaluable): 2
- ANC response, patients with ANC > 1000: Responders (percent) (MDS; 9 evaluable): 22%
- Platelets ≧ 50% ↑: Responders (number) (MDS; 9 evaluable): 3
- Platelets ≧ 50% ↑: Responders (percent) (MDS; 9 evaluable): 33%
- RBC Transfusion (≦50% ↓): Responders (number) (MDS; 13 evaluable): 0
- Retic count ≧ 50% ↑: Responders (number) (MDS; 14 evaluable): 10
- Retic count ≧ 50% ↑: Responders (percent) (MDS; 14 evaluable): 71%
- ANC ≧ 50% ↑: Responders (number) (MDS; [8]): 5
- ANC ≧ 50% ↑: Responders (percent) (MDS; [8]): 29%
- fatigue (grade I/II): patients (MDS; MDS patients, s.c. amifostine): four patients
- local reaction (grade III): patients (MDS; MDS patients, s.c. amifostine): one patient
- metallic taste (grade I/II): patients (MDS; MDS patients, s.c. amifostine): one patient
- nausea (grade I/II): patients (MDS; MDS patients, s.c. amifostine): one patient
- rash (grade I/II): patients (MDS; MDS patients, s.c. amifostine): six patients
- vomiting (grade I/II): patients (MDS; MDS patients, s.c. amifostine): one patient
- ≧Grade 2 acute xerostomia Incidence, All patients ([1]; 200 mg/m^2 3 minute infusion 15 to 30 minutes before RT, N 148): 51%
- ≧Grade 2 acute xerostomia Incidence, Patients receiving ≧60 Gy RT ([1]; 200 mg/m^2): 51%
- ≧Grade 2 acute xerostomia, Median cumulative RT dose to onset ([1]; 200 mg/m^2): 60 Gy
- ≧Grade 2 acute xerostomia, Median time to onset ([1]; 200 mg/m^2): 45 days
- Headache: subjects who reported the adverse event [2, 9]: 1008
- Hypotension: subjects who reported the adverse event [2, 9]: 1003
- Lightheadedness: subjects who reported the adverse event [2, 9]: 1003
- Somnolence: subjects who reported the adverse event [2, 9]: 1008
- Vomiting: subjects who reported the adverse event [2, 9]: 1008
- Hypotension: subjects who reported the adverse event [2, 10]: one subject
- Nausea: subjects who reported the adverse event [2, 10]: five subjects
- Vomiting: subjects who reported the adverse event [2, 10]: one subject
- Hypotension: subjects who reported the adverse event [2, 11]: 1003
- Lightheadedness: subjects who reported the adverse event [2, 11]: 1003
- Hypotension: subjects who reported the adverse event ([2]; Oral 500 mg, N = 12, table cells give subject numbers, listed as amifostine): one subject
- incidence of hypotension ([2]; Subcutaneous 500 mg, N = 12): no incidence
- Nausea: subjects who reported the adverse event ([2]; Subcutaneous 500 mg, N = 12, table cells give subject numbers): 1002
- Nausea: subjects who reported the adverse event ([2]; Subcutaneous 500 mg, N = 12, table cells give subject numbers, listed as amifostine): one subject
- Grade 2 or higher laboratory toxicity (NCI Common Toxicity Criteria) ([2]; after last dose, 12 subjects): none of the subjects
- serum creatinine value, Subject 1010 ([2]; after last dose, baseline 0.90 mg/dL, reference range 0.70 to 1.40 mg/dL): 0.60 mg/dL
- changes in physical examination, weight and vital signs ([2]; after the last dose of amifostine): No remarkable changes
- severity of adverse events ([2]; all three routes): mild in severity, transient
- discontinuation due to adverse events ([2]; all three routes, 12 subjects): No subject discontinued
- subjects who reported adverse events ([2]; intravenous amifostine, 12 subjects): Five subjects
- subjects who reported adverse events ([2]; oral amifostine, 12 subjects): one subject
- tolerability ([2]; regardless of route of administration): well tolerated
- subjects who reported adverse events ([2]; subcutaneous amifostine, 12 subjects): one subject
- Erythema (score) [3, 12]: 0.5 and 0
- Oedema (score) [3, 12]: 1 and 0 and 0.5
- Erythema (score) [3, 13]: 0.5 and 0
- Oedema (score) [3, 13]: 1 and 0 and 0.5
- Oedema (score) ([3]; Amifostine (l.p.) at 200 mg/kg + Irradiation (16.5 Gy), day 12 after treatment, 200 mg/kg): 2 and 1 and 0.5
- Erythema (score) [3, 14]: 0.5 and 2 and 1
- Oedema (score) [3, 14]: 0.5 and 2 and 1
- Erythema (score) [3, 15]: 0.5 and 2 and 1 and 0
- Oedema (score) [3, 15]: 0.5 and 2 and 1 and 0
- Oedema (score) ([3]; Amifostine (l.p.) at 400 mg/kg + Irradiation (16.5 Gy), day 6 after treatment, 400 mg/kg): 0.5 and 0
- Oedema (score) ([3]; Amifostine (l.p.) at 400 mg/kg + Irradiation (16.5 Gy), day 7 after treatment, 400 mg/kg): 0.5 and 0
- Erythema (score) ([3]; Amifostine (l.p.) at 400 mg/kg + Irradiation (16.5 Gy), day 12 after treatment, 400 mg/kg): 3 and 1 and 2
- Erythema (score) [3, 16]: 0 and 0.5
- Oedema (score) [3, 16]: 0.5 and 0
- Erythema (score) [3, 17]: 0 and 0.5
- Oedema (score) [3, 17]: 0.5 and 0
- Erythema (score) ([3]; Amifostine (s.c.) at 200 mg/kg + Irradiation (16.5 Gy), day 7 after treatment, 200 mg/kg): 0 and 0.5
- Erythema (score) [3, 18]: 0.5 and 1 and 3
- Oedema (score) [3, 18]: 0.5 and 1 and 2
- Erythema (score) ([3]; Amifostine (s.c.) at 200 mg/kg + Irradiation (16.5 Gy), day 13 after treatment, 200 mg/kg): 1 and 0.5 and 2
- Oedema (score) ([3]; Amifostine (s.c.) at 200 mg/kg + Irradiation (16.5 Gy), day 14 after treatment, 200 mg/kg): 0.5 and 1 and 0
- Oedema (score) ([3]; Amifostine (s.c.) at 400 mg/kg + Irradiation (16.5 Gy), day 6 after treatment, 400 mg/kg): 1 and 0.5 and 0
- Oedema (score) ([3]; Amifostine (s.c.) at 400 mg/kg + Irradiation (16.5 Gy), day 7 after treatment, 400 mg/kg): 0.5 and 0
- Erythema (score) ([3]; Amifostine (s.c.) at 400 mg/kg + Irradiation (16.5 Gy), day 13 after treatment, 400 mg/kg): 1 and 0 and 0.5
- Erythema (score) [3, 19]: 1 and 0 and 0.5
- Oedema (score) [3, 19]: 1 and 0 and 0.5
- mucosal edema scores as compared to saline plus irradiation ([3]; both injection methods (i.p., s.c.)): decreased
- average erythema score as compared to saline plus irradiation ([3]; i.p and s.c. administration): decreased
- reduction in body weight after irradiation ([3]; i.p. or s.c. injection of amifostine, irradiated mice): prevented
- effect of increasing the dose from 200 mg/kg to 400 mg/kg ([3]; irradiated mice): minimal additional benefits
- efficacy at the time points of maximal adverse effects (day 9 body weight, day 12 erythema and edema) ([3]; subcutaneous, 200 mg/kg): highest efficacy
- time after administration at which concentration dropped below 10 μM, amifostine (parent drug plus active metabolite) ([4]; iv): 45 min
- time after administration at which concentration dropped below 10 μM, amifostine (parent drug) ([4]; iv): approximately 30 minutes
- time after administration at which concentration dropped below 1.0 μM, amifostine (parent drug plus active metabolite) ([4]; po): 10 to 13 min
- time after administration at which concentration fell below 10 μM, amifostine (parent drug plus active metabolite) ([4]; sc): approximately 50 minutes
- time after administration at which concentration fell below 10 μM, amifostine (parent drug) ([4]; sc): approximately 45 minutes
- peak levels (maximum whole blood concentration) ([4]; male, iv): about 100 μM
- AUC of Combined (parent drug and active metabolite), 500 mg Oral (PO) ([4]; male, po): 0 µM·min
- maximum blood levels ([4]; male, sc): about 12 μM
- time to maximum and sustained whole blood concentration ([4]; male, sc): 15 to 45 min
- amifostine remaining in the plasma ([5]; 6 minutes after intravenous administration): Less than 10%
- distribution half-life [5, 20]: less than 1 minute
- elimination half-life [5, 20]: approximately 9 minutes
- formation of CFU-GEMM, BFU-E and CFU-GM colonies [6]: produced bone marrow colonies
- radioprotection (mucositis) of SC versus IV administration (mucositis): comparable to IV administration
- rate of acute xerostomia with subcutaneous versus IV amifostine ([7]; SC amifostine + RT): comparable rate
- Grade 3 hypotension [7, 21]: no reports
- Grade 3 nausea/vomiting [7, 21]: no reports

SMILES: NCCCNCCS [WR-1065, 2-[3-aminopropylamino]ethanethiol]
- absolute bioavailability of the active metabolite [4]: 0.53
- time after administration at which concentration fell below 5 μM, WR-1065 ([4]; iv): approximately 45 minutes
- time after administration at which concentration fell below 5 μM, WR-1065 ([4]; sc): approximately 60 minutes
- peak levels (maximum whole blood concentration) ([4]; male, iv): about 23 μM
- maximum blood levels ([4]; male, sc): ~4 µM
- time to maximum and sustained whole blood concentration ([4]; male, sc): 15 to 45 min
